Key:
Type in all cases: cell-based, human
[1] = system: MF CD34+, CD41+ and CD33+ cells; test: Proliferation and lineage differentiation of MF mononuclear cells cultured with IL-8, flow cytometry; conditions: 50 ng/ml of IL-8, 3 days of incubation, FIG. 4A
Experimental: To evaluate the effects of IL-8 on MF CD34^+ cells proliferation and lineage differentiation, MF mononuclear cells (MNC cells) were cultured with StemSpan™ Serum-Free Expansion Medium (SFEM) containing 20 ng/ml of stem cell factor (SCF), thrombopoietin (TPO), FL-3L and IL-3 with or without 50 ng/ml of IL-8. The cells were harvested after 3 days of incubation. The proportion of hematopoietic cells belonging to specific lineages were determined using flow cytometry.

[2] = system: MF CD34+ cells; test: Colony forming assay (CFU-GM) of cultured MF CD34+ cells with IL-8
Text: FIGS. 5A, 5B. 5C, 5D, and 5E illustrate that a CXCR1/CXCR2 inhibitor reverses effects of IL-8 on MF CD34^+ cell colony formation. […] CFU-GM=colony-forming unit-granulocyte-macrophage. FIGS. 5B and 5C illustrate that IL-8 increased CFU-GM colony formation by MF CD34^+ cells in a dose dependent fashion and that the effects of IL-8 were inhibited by treatment with Ladx. FIG. 5B. Normal cells. FIG. 5C. MF cells. […] Con=control. IL-8 concentrations increase from left to right. […] P values were as follows: w/o Ladx: Con vs IL-8—10 ng: 0.159332; Con vs IL-8—20 ng: 0.011976; Con vs IL-8—50 ng: 0.00262; Con vs IL-8—100 ng: 0.00042; w/ 10 μM Ladx: Con vs Ladx: 0.315782; IL-8—10 ng vs plus Ladx: 0.295851; IL-8—20 ng vs plus Ladx: 0.077726; IL-8—50 ng vs plus Ladx: 0.031355; IL-8—100 ng vs plus Ladx: 0.081595.

[3] = system: normal donor CD34+ cells; test: Proliferation and lineage differentiation of normal donor cells cultured with IL-8, flow cytometry; conditions: incubated with IL-8, FIG. 4A
[4] = system: MF CD34+ cells; test: Clonal assays of MF CD34+ cells; JAK2V617F allele status of picked hematopoietic colonies; conditions: for number of colonies, Heter (JAK2V617F heterozygous) / number of colonies, Homo (JAK2V617F homozygous) / number of colonies, WT (JAK2 wild type) / number of colonies, Wild (JAK2 wild type): no ladarixin
Experimental: Individual hematopoietic colonies were randomly picked from clonal assays of CD34^+ cells from 6 MF cases and the JAK2V617F allele status was determined.
IL-8 alone increased the absolute numbers of JAK2V617F+ colonies, and the addition of Ladarixin reduced the numbers of JAK2V617F positive colonies stimulated by IL-8 (Tables 1-3).

[5] = system: spleen stromal cells; test: VEGF mRNA expression by spleen stromal cells after IL-8 silencing; conditions: addition of IL-8, FIG. 3C
Text: FIGS. 3A, 3B, and 3C illustrate that reduction of IL-8 blocks VEGF, which is involved in the development of splenic endothelial cells (EC)/MF HSC niches. FIGS. 3A and 3B illustrate that LCN2 increases IL-8 and CXCL1 protein and mRNA levels in spleen stromal cells. Con: left bars. LCN2: right bars. FIG. 3C illustrates that IL-8 regulates VEGF expression. si=silencing. Ab=antibody. Con=control.
Lipocalin2 (LCN2) is a cytokine produced by MF marrow myeloid cells. Levels of LCN2 are 2-3 fold greater in the circulation of MF patients as compared to PV and ET patients and even higher as compared to healthy controls. […] IL-8 and the related chemokine CXCL1 are pro-angiogenic creating a cascade of cytokines (VEGF) contributing to the development of splenic EC/MF HSC niches. […] The positive impact of IL-8 on VEGF expression was blocked by an IL-8 neutralizing antibody.

[6] = system: normal CD34+ cells; test: Hematopoietic colony formation by normal CD34+ cells with IL-8; conditions: increasing concentrations of IL-8, FIG. 5B

Substance: IL-8: pro-inflammatory cytokine; CXCR1 and CXCR2 are its receptors
- percentage of MF CD34+, CD41+ and CD33+ cells [1]: increased
- numbers of MF CFU-GM colonies ([2]; IL-8 at doses of 50 ng/ml and 100 ng/ml, FIG. 5C): increased
- colony output of cultured MF CD34+ cells compared to WT CD34+ cells ([2]; cultured with IL-8, FIG. 5A): enhanced colony output
- CFU-GM colony formation by MF samples with the highest expression of CXCR1/CXCR2 ([2]; treatment with IL-8, FIG. 5D): increased
- percentage of normal donor CD34+, CD41+ and CD33+ cell populations [3]: decreased
- absolute numbers of JAK2V617F+ colonies ([4]; IL-8 alone, 6 MF cases): increased
- number of colonies, Heter (JAK2V617F heterozygous) ([4]; MF1 CD34+ cells, IL-8 10 ng): 36
- number of colonies, Homo (JAK2V617F homozygous) ([4]; MF1 CD34+ cells, IL-8 10 ng): 0
- number of colonies, WT (JAK2 wild type) ([4]; MF1 CD34+ cells, IL-8 10 ng): 18
- number of colonies, Heter (JAK2V617F heterozygous) ([4]; MF1 CD34+ cells, IL-8 20 ng): 48
- number of colonies, Homo (JAK2V617F homozygous) ([4]; MF1 CD34+ cells, IL-8 20 ng): 0
- number of colonies, WT (JAK2 wild type) ([4]; MF1 CD34+ cells, IL-8 20 ng): 17
- number of colonies, Heter (JAK2V617F heterozygous) ([4]; MF1 CD34+ cells, IL-8 50 ng): 52
- number of colonies, Homo (JAK2V617F homozygous) ([4]; MF1 CD34+ cells, IL-8 50 ng): 0
- number of colonies, WT (JAK2 wild type) ([4]; MF1 CD34+ cells, IL-8 50 ng): 21
- number of colonies, Heter (JAK2V617F heterozygous) ([4]; MF1 CD34+ cells, IL-8 100 ng): 68
- number of colonies, Homo (JAK2V617F homozygous) ([4]; MF1 CD34+ cells, IL-8 100 ng): 0
- number of colonies, WT (JAK2 wild type) ([4]; MF1 CD34+ cells, IL-8 100 ng): 0
- number of colonies, Heter (JAK2V617F heterozygous) ([4]; MF2 CD34+ cells, IL-8 10 ng): 0
- number of colonies, Homo (JAK2V617F homozygous) ([4]; MF2 CD34+ cells, IL-8 10 ng): 0
- number of colonies, WT (JAK2 wild type) ([4]; MF2 CD34+ cells, IL-8 10 ng): 44
- number of colonies, Heter (JAK2V617F heterozygous) ([4]; MF2 CD34+ cells, IL-8 20 ng): 3
- number of colonies, Homo (JAK2V617F homozygous) ([4]; MF2 CD34+ cells, IL-8 20 ng): 0
- number of colonies, WT (JAK2 wild type) ([4]; MF2 CD34+ cells, IL-8 20 ng): 38
- number of colonies, Heter (JAK2V617F heterozygous) ([4]; MF2 CD34+ cells, IL-8 50 ng): 7
- number of colonies, Homo (JAK2V617F homozygous) ([4]; MF2 CD34+ cells, IL-8 50 ng): 0
- number of colonies, WT (JAK2 wild type) ([4]; MF2 CD34+ cells, IL-8 50 ng): 41
- number of colonies, Heter (JAK2V617F heterozygous) ([4]; MF2 CD34+ cells, IL-8 100 ng): 3
- number of colonies, Homo (JAK2V617F homozygous) ([4]; MF2 CD34+ cells, IL-8 100 ng): 0
- number of colonies, WT (JAK2 wild type) ([4]; MF2 CD34+ cells, IL-8 100 ng): 52
- number of colonies, Heter (JAK2V617F heterozygous) ([4]; MF3 CD34+ cells, IL-8 10 ng): 27
- number of colonies, Homo (JAK2V617F homozygous) ([4]; MF3 CD34+ cells, IL-8 10 ng): 80
- number of colonies, WT (JAK2 wild type) ([4]; MF3 CD34+ cells, IL-8 10 ng): 36
- number of colonies, Heter (JAK2V617F heterozygous) ([4]; MF3 CD34+ cells, IL-8 20 ng): 79
- number of colonies, Homo (JAK2V617F homozygous) ([4]; MF3 CD34+ cells, IL-8 20 ng): 63
- number of colonies, WT (JAK2 wild type) ([4]; MF3 CD34+ cells, IL-8 20 ng): 31
- number of colonies, Heter (JAK2V617F heterozygous) ([4]; MF3 CD34+ cells, IL-8 50 ng): 30
- number of colonies, Homo (JAK2V617F homozygous) ([4]; MF3 CD34+ cells, IL-8 50 ng): 99
- number of colonies, WT (JAK2 wild type) ([4]; MF3 CD34+ cells, IL-8 50 ng): 30
- number of colonies, Heter (JAK2V617F heterozygous) ([4]; MF3 CD34+ cells, IL-8 100 ng): 32
- number of colonies, Homo (JAK2V617F homozygous) ([4]; MF3 CD34+ cells, IL-8 100 ng): 95
- number of colonies, WT (JAK2 wild type) ([4]; MF3 CD34+ cells, IL-8 100 ng): 42
- number of colonies, Heter (JAK2V617F heterozygous) ([4]; MF4 CD34+ cells, IL-8 10 ng): 183
- number of colonies, Homo (JAK2V617F homozygous) ([4]; MF4 CD34+ cells, IL-8 10 ng): 12
- number of colonies, Wild (JAK2 wild type) ([4]; MF4 CD34+ cells, IL-8 10 ng): 0
- number of colonies, Heter (JAK2V617F heterozygous) ([4]; MF4 CD34+ cells, IL-8 20 ng): 171
- number of colonies, Homo (JAK2V617F homozygous) ([4]; MF4 CD34+ cells, IL-8 20 ng): 0
- number of colonies, Wild (JAK2 wild type) ([4]; MF4 CD34+ cells, IL-8 20 ng): 0
- number of colonies, Heter (JAK2V617F heterozygous) ([4]; MF4 CD34+ cells, IL-8 50 ng): 190
- number of colonies, Homo (JAK2V617F homozygous) ([4]; MF4 CD34+ cells, IL-8 50 ng): 0
- number of colonies, Wild (JAK2 wild type) ([4]; MF4 CD34+ cells, IL-8 50 ng): 0
- number of colonies, Heter (JAK2V617F heterozygous) ([4]; MF4 CD34+ cells, IL-8 100 ng): 174
- number of colonies, Homo (JAK2V617F homozygous) ([4]; MF4 CD34+ cells, IL-8 100 ng): 12
- number of colonies, Wild (JAK2 wild type) ([4]; MF4 CD34+ cells, IL-8 100 ng): 12
- number of colonies, Heter (JAK2V617F heterozygous) ([4]; MF5 CD34+ cells, IL-8 10 ng): 0
- number of colonies, Homo (JAK2V617F homozygous) ([4]; MF5 CD34+ cells, IL-8 10 ng): 0
- number of colonies, Wild (JAK2 wild type) ([4]; MF5 CD34+ cells, IL-8 10 ng): 124
- number of colonies, Heter (JAK2V617F heterozygous) ([4]; MF5 CD34+ cells, IL-8 20 ng): 0
- number of colonies, Homo (JAK2V617F homozygous) ([4]; MF5 CD34+ cells, IL-8 20 ng): 0
- number of colonies, Wild (JAK2 wild type) ([4]; MF5 CD34+ cells, IL-8 20 ng): 142
- number of colonies, Heter (JAK2V617F heterozygous) ([4]; MF5 CD34+ cells, IL-8 50 ng): 0
- number of colonies, Homo (JAK2V617F homozygous) ([4]; MF5 CD34+ cells, IL-8 50 ng): 0
- number of colonies, Wild (JAK2 wild type) ([4]; MF5 CD34+ cells, IL-8 50 ng): 115
- number of colonies, Heter (JAK2V617F heterozygous) ([4]; MF5 CD34+ cells, IL-8 100 ng): 0
- number of colonies, Homo (JAK2V617F homozygous) ([4]; MF5 CD34+ cells, IL-8 100 ng): 0
- number of colonies, Wild (JAK2 wild type) ([4]; MF5 CD34+ cells, IL-8 100 ng): 115
- number of colonies, Heter (JAK2V617F heterozygous) ([4]; MF6 CD34+ cells, IL-8 10 ng): 0
- number of colonies, Homo (JAK2V617F homozygous) ([4]; MF6 CD34+ cells, IL-8 10 ng): 0
- number of colonies, Wild (JAK2 wild type) ([4]; MF6 CD34+ cells, IL-8 10 ng): 115
- number of colonies, Heter (JAK2V617F heterozygous) ([4]; MF6 CD34+ cells, IL-8 20 ng): 0
- number of colonies, Homo (JAK2V617F homozygous) ([4]; MF6 CD34+ cells, IL-8 20 ng): 0
- number of colonies, Wild (JAK2 wild type) ([4]; MF6 CD34+ cells, IL-8 20 ng): 131
- number of colonies, Heter (JAK2V617F heterozygous) ([4]; MF6 CD34+ cells, IL-8 50 ng): 8
- number of colonies, Homo (JAK2V617F homozygous) ([4]; MF6 CD34+ cells, IL-8 50 ng): 0
- number of colonies, Wild (JAK2 wild type) ([4]; MF6 CD34+ cells, IL-8 50 ng): 125
- number of colonies, Heter (JAK2V617F heterozygous) ([4]; MF6 CD34+ cells, IL-8 100 ng): 12
- number of colonies, Homo (JAK2V617F homozygous) ([4]; MF6 CD34+ cells, IL-8 100 ng): 0
- number of colonies, Wild (JAK2 wild type) ([4]; MF6 CD34+ cells, IL-8 100 ng): 87
- effect on decrease of VEGF mRNA expression caused by silencing of IL-8 [5]: reversed this effect
- hematopoietic colony formation by normal CD34+ cells [6]: did not affect

Reference: US20240115527A1, “CXCR1/CXCR2 INHIBITORS FOR USE IN TREATING MYELOFIBROSIS” (Icahn School of Medicine at Mount Sinai, priority 2020, published 2024)
